According to ChEMBL document CHEMBL3774354, “Discovery of Selective Histone Deacetylase 6 Inhibitors Using the Quinazoline as the Cap for the Treatment of Cancer” (J Med Chem, 2016):

Assays:
[1] = target: Histone deacetylase 1 (Homo sapiens, UniProt Q13547)
Description: Inhibition of human recombinant HDAC1 using AMC labeled AC-peptide as substrate incubated for 1 hr by fluorescence analysis

[2] = target: T1, Protein deacetylase HDAC6 (Homo sapiens, UniProt Q9UBN7)
T1 sequence (Q9UBN7 whole entry): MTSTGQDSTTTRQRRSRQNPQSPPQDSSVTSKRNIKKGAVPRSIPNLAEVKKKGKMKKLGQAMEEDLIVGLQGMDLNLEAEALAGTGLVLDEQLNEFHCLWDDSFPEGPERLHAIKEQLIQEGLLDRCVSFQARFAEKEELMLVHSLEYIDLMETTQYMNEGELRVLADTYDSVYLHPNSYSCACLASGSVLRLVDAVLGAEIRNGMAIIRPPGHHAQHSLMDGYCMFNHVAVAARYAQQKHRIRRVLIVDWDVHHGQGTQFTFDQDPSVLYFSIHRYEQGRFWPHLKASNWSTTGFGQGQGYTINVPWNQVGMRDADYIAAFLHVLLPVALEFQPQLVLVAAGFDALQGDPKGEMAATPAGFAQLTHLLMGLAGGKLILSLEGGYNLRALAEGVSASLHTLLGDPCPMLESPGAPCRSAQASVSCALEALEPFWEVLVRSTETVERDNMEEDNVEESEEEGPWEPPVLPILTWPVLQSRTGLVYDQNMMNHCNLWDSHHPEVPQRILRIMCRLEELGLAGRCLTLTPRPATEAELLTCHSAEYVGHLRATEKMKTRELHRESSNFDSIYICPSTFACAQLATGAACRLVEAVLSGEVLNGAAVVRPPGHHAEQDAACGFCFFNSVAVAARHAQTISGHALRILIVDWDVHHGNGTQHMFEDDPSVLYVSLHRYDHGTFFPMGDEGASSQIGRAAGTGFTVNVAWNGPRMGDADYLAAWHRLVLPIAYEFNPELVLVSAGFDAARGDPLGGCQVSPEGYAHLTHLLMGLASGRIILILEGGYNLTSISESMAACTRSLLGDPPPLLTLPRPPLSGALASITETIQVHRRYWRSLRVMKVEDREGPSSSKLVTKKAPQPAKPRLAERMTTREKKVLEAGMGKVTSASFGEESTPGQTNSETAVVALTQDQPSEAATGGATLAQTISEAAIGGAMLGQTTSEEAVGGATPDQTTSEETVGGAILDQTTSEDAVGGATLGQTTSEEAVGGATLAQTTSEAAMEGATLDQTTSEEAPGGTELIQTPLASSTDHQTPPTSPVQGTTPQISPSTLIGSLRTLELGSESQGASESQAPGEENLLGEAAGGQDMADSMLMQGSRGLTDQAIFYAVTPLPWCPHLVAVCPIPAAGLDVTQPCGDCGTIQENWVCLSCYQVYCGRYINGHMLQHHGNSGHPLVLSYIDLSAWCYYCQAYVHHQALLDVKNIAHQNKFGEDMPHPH
Description: Inhibition of human recombinant HDAC6 using AMC labeled AC-peptide as substrate incubated for 1 hr by fluorescence analysis

[3] = target: T2, Histone deacetylase 8 (Homo sapiens, UniProt Q9BY41)
T2 sequence (Q9BY41 whole entry): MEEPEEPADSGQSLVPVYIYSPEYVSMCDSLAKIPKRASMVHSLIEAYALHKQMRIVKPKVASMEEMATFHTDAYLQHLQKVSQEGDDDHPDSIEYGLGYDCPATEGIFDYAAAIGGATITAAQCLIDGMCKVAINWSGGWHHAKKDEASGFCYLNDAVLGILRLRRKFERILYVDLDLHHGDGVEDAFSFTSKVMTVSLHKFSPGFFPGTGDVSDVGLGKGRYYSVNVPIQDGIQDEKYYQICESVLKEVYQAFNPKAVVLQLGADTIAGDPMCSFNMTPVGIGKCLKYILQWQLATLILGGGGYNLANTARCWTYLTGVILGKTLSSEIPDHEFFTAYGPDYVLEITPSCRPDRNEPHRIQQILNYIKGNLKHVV
Description: Inhibition of human recombinant HDAC8 using AMC labeled AC-peptide as substrate incubated for 1 hr by fluorescence analysis

[4] = system: A-375; experiment: Antiproliferative activity against human A375 cells after 72 hrs by MTT assay; format: functional, cell-based; conditions: A-375, 72 h
[5] = system: HeLa; experiment: Antiproliferative activity against human HeLa cells after 72 hrs by MTT assay; format: functional, cell-based
[6] = system: HeLa; experiment: Induction of histone H3 acetylation in human HeLa cells incubated for 6 hrs by cytoblot assay; format: functional, cell-based
[7] = target: T1, Protein deacetylase HDAC6; experiment: Inhibition of HDAC6 in human HeLa cells assessed as induction of tubulin acetylation incubated for 6 hrs by cytoblot assay; format: cell-based
[8] = system: Ramos; experiment: Antitumor activity against human Ramos cells xenografted in NOD/SCID mouse assessed as tumor mass change at 10 mg/kg, ip q2d for 6 days; format: functional
[9] = system: Mus musculus; experiment: Toxicity in NOD/SCID mouse xenografted with human Ramos cells assessed as change in body weight at 10 mg/kg, ip q2d for 6 days; conditions: in vivo, 144 h

Sequence of Histone deacetylase 1 (Q13547 whole entry): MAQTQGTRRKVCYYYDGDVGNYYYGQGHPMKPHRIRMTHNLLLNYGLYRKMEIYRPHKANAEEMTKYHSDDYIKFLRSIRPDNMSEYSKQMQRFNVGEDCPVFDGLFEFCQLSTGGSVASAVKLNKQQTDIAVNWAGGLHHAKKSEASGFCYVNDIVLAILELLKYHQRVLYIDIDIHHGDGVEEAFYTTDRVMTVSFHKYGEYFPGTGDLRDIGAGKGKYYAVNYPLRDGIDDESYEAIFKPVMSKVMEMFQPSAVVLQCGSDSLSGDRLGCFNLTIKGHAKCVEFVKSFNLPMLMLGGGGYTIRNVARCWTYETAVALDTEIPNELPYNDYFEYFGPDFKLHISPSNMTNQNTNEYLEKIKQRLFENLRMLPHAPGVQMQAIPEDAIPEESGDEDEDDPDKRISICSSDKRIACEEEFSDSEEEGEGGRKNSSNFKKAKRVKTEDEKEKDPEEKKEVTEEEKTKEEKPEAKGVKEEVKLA

| IC50 [1] | IC50 [2] | IC50 [3] | IC50 [4] | IC50 [5] | EC50 [6] | EC50 [7] | SMILES | Activity [8] | Activity [9] |
| --- | --- | --- | --- | --- | --- | --- | --- | --- | --- |
| 160 nM | 23 nM | 1530 nM |  |  |  |  | COc1ccc(N(C)c2nc(C)nc3ccccc23)cc1OCCCCCC(=O)NO |  |  |
|  |  |  | 213 nM | 171 nM | 456 nM | 26.2 nM | Cc1nc(N(C)c2ccc(OCC(=O)NO)cc2)c2ccccc2n1 |  |  |
|  |  |  |  |  |  |  | Cc1[nH]c2ccccc2c1CCNCc1ccc(/C=C/C(=O)NO)cc1 [PANOBINOSTAT] | 16.6% | -1.9% |
| 73 nM | > 1000 nM | > 1000 nM |  |  |  |  | Cc1nc(N(C)c2cccc(OCCCCCC(=O)NO)c2)c2ccccc2n1 |  |  |
| > 1000 nM | > 1000 nM | > 1000 nM |  |  |  |  | COc1ccc(N(C)c2nc(C)nc3ccccc23)cc1OCC(=O)NO |  |  |
| 306 nM | > 1000 nM | > 1000 nM |  |  |  |  | Cc1nc(N(C)c2cccc(OCCCCC(=O)NO)c2)c2ccccc2n1 |  |  |
| 253 nM | 111 nM |  |  |  |  |  | COc1ccc(N(C)c2nc(C)nc3ccccc23)cc1OCCCCC(=O)NO |  |  |
| > 1000 nM | > 1000 nM | > 1000 nM |  |  |  |  | Cc1nc(N(C)c2cccc(OCC(=O)NO)c2)c2ccccc2n1 |  |  |
| 264 nM | 17 nM | 2970 nM | 2850 nM | 2220 nM | 1770 nM | 50.8 nM | Cc1nc2c(c(N(C)c3ccc(OCC(=O)NO)cc3)n1)CCC2 |  |  |
